Activity calls are given as the source filed them. No cut-off for these calls is given here.
Experiments:
[1] = Inhibition of CDK8/CDK19 in MV4-11 cells and measured after 7 days by Spectra max iD5 microplate reader; format: cell-based, Homo sapiens
[2] = target: CDK8/Cyclin C (Homo sapiens, UniProt P49336); test: Inhibition of kinase tracer 236 binding to His tagged recombinant human CDK8/cyclin C incubated for 60 min FRET based LanthaScreen Eu-Kinase binding assay; format: protein-complex assay
[3] = Inhibition of NF kappa B dependent CDK8/CDK19 in HEK293 cell incubated for 3 hrs in presence of TNF-alpha by Spectra max microtitre plate reader; format: cell-based; conditions: Homo sapiens, HEK293, 3 h
[4] = target: T1, CDK8/Cyclin C (Homo sapiens) (UniProt P49336+P24863); test: Binding affinity to kinase tracer 236 binding to His tagged recombinant human CDK8/cyclinC assessed as rate constant (kon) by TR FRET based assay; format: protein-complex assay
[5] = target: T1, CDK8/Cyclin C (Homo sapiens); test: Binding affinity to kinase tracer 236 binding to His tagged recombinant human CDK8/cyclinC assessed as mean residence time by TR FRET based assay; format: protein-complex assay
[6] = target: T2, Cyclin-C/Cyclin-dependent kinase 19 (Homo sapiens) (UniProt Q9BWU1+P24863); test: Binding affinity to recombinant human CDK19/cyclinC assessed as mean residence time by TR FRET based assay; format: protein-complex assay
[7] = target: T2, Cyclin-C/Cyclin-dependent kinase 19 (Homo sapiens); test: Binding affinity to recombinant human CDK19/cyclinC assessed as rate constant (kon) by TR FRET based assay; format: protein-complex assay
[8] = target: T2, Cyclin-C/Cyclin-dependent kinase 19 (Homo sapiens); test: Binding affinity to recombinant human CDK19/cyclinC assessed as rate constant (koff) by TR FRET based assay; format: protein-complex assay
[9] = Metabolic stability in human hepatocyte assessed as intrinsic clearance at 2 uM measured per 10^6 by LC-MS/MS analysis; format: ADME, cell-based; conditions: hepatocytes
[10] = target: T1, CDK8/Cyclin C (Homo sapiens); test: Binding affinity to kinase tracer 236 binding to His tagged recombinant human CDK8/cyclinC assessed as rate constant (koff) by TR FRET based assay; format: protein-complex assay
[11] = system: HEK293; test: Downregulation of CDK8/19 in HEK293 cells assessed as reversal of mRNA expression level in KCTD12 gene at 1 uM for 3 hr pretreatment and measured after 3 hr post wash-off by qt-PCR analysis; format: functional, cell-based; conditions: Homo sapiens, time 6.0 hrs
[12] = target: T2, Cyclin-C/Cyclin-dependent kinase 19 (Homo sapiens); test: Binding affinity to recombinant human CDK19/cyclinC assessed as half life by TR FRET based assay; format: protein-complex assay
[13] = system: HEK293; test: Downregulation of CDK8/19 in HEK293 cells assessed as reversal of mRNA expression level in MYC gene at 1 uM for 3 hr pretreatment and measured after 3 hr post wash-off by qt-PCR analysis; format: functional, cell-based; conditions: Homo sapiens, time 6.0 hrs
[14] = target: T1, CDK8/Cyclin C (Homo sapiens); test: Binding affinity to kinase tracer 236 binding to His tagged recombinant human CDK8/cyclinC assessed as half life by TR FRET based assay; format: protein-complex assay

CDK8/Cyclin C, sequence (P49336 whole entry): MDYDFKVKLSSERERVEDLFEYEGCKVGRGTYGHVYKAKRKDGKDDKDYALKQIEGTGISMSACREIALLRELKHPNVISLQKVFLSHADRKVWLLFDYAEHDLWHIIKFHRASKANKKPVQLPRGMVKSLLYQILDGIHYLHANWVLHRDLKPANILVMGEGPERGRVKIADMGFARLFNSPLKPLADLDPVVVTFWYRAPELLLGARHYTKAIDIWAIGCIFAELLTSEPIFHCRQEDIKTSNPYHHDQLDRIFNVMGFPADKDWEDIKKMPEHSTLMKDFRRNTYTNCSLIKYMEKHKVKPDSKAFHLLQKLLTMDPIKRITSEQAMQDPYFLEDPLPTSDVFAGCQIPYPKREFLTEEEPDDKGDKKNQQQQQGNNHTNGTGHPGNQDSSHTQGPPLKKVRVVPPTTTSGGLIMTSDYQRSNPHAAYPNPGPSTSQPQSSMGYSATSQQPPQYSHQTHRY
CDK8/Cyclin C, sequence (P24863 whole entry, further chain): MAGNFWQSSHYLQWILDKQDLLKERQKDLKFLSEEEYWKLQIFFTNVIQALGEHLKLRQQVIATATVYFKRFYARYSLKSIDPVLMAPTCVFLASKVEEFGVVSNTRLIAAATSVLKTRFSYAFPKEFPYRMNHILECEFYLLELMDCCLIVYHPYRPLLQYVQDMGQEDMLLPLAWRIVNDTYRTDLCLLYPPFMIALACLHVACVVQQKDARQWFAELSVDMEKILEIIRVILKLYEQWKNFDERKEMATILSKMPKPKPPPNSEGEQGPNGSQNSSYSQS

SMILES: N#Cc1ccc2nccc(NCCc3ccc4cc(C(=O)N5CCN(CCCN)CC5)ccc4c3)c2c1
- IC50 [1]: 305 nM
- IC50 [2]: 6.5 nM
- IC50 [3]: 870 nM

SMILES: CC(C)(C)OC(=O)NCCCN1CCN(C(=O)c2ccc3cc(CCNc4ccnc5ccc(C#N)cc45)ccc3c2)CC1
- IC50 [1]: 167 nM
- IC50 [2]: 8.1 nM
- IC50 [3]: 81 nM

SMILES: CC(C)(C)OC(=O)N1CCN(C(=O)c2ccc3cc(CCNc4ccnc5ccc(C#N)cc45)ccc3c2)CC1
- IC50 [1]: 209 nM
- IC50 [2]: 19 nM
- IC50 [3]: 137 nM

SMILES: CN(CCCNC(=O)OC(C)(C)C)C(=O)c1ccc2cc(CCNc3ccnc4ccc(C#N)cc34)ccc2c1
- IC50 [1]: 173 nM
- IC50 [2]: 9.3 nM
- IC50 [3]: 208 nM

SMILES: FC(F)(F)c1ccc2nccc(NCCc3ccccc3)c2c1
- IC50 [2]: 356 nM
- IC50 [3]: > 5000 nM

SMILES: c1ccc(CCNc2ccnc3ccccc23)cc1
- IC50 [2]: > 1000 nM
- IC50 [3]: > 5000 nM

SMILES: N#Cc1ccc2ncnc(NCCc3ccccc3)c2c1
- IC50 [1]: 994 nM
- IC50 [2]: 35 nM
- IC50 [3]: 349 nM

SMILES: CN(CCCN)C(=O)c1ccc2cc(CCNc3ccnc4ccc(C#N)cc34)ccc2c1
- IC50 [1]: 297 nM
- IC50 [2]: 9.2 nM
- IC50 [3]: 118 nM

SMILES: Brc1ccc2nccc(NCCc3ccccc3)c2c1
- IC50 [2]: 183 nM
- IC50 [3]: > 5000 nM

SMILES: CC(=O)N1CCN(C(=O)c2ccc3cc(CCNc4ccnc5ccc(C#N)cc45)ccc3c2)CC1
- IC50 [1]: 297 nM
- IC50 [2]: 12 nM
- IC50 [3]: 184 nM

SMILES: NC(=O)c1ccc2nccc(NCCc3ccccc3)c2c1
- IC50 [2]: > 1000 nM
- IC50 [3]: > 5000 nM

SMILES: N#Cc1ccc2nccc(NCCc3ccc4cc(C(=O)N5CCSCC5)ccc4c3)c2c1
- IC50 [1]: 93 nM
- IC50 [2]: 9.1 nM
- IC50 [3]: 138 nM

SMILES: N#Cc1ccc2nccc(NCCc3ccc4cc(C(=O)N5CCS(=N)(=O)CC5)ccc4c3)c2c1
- IC50 [1]: 271 nM
- IC50 [2]: 4.6 nM
- IC50 [3]: 244 nM

SMILES: CN1CCN(C(=O)c2ccc3cc(CCNc4ncnc5ccc(C#N)cc45)ccc3c2)CC1 [SENEXIN B]
- K [4]: 1.65 10^6/M/s
- MRT [5]: 5.13 min
- MRT [6]: 2.65 min
- K [7]: 2.13 10^6/M/s
- K [8]: 0.00628 s⁻¹
- CLH [9]: 0.0198 mL/min
- K [10]: 0.00325 s⁻¹
- Activity [11]: inactive
- T1/2 [12]: 1.84 min
- Activity [13]: inactive
- T1/2 [14]: 3.55 min

SMILES: Clc1ccc2nccc(NCCc3ccccc3)c2c1
- IC50 [2]: 44 nM
- IC50 [3]: > 5000 nM

SMILES: Ic1ccc2nccc(NCCc3ccccc3)c2c1
- IC50 [2]: 212 nM
- IC50 [3]: > 5000 nM

SMILES: CNC(=O)c1ccc2nccc(NCCc3ccccc3)c2c1
- IC50 [2]: > 1000 nM
- IC50 [3]: > 5000 nM

SMILES: N#Cc1ccc2nccc(NCCc3ccc4cc(C(=O)N5CC[S+]([O-])CC5)ccc4c3)c2c1
- IC50 [1]: 222 nM
- IC50 [2]: 5.8 nM
- IC50 [3]: 160 nM

SMILES: Nc1ccc2nccc(NCCc3ccccc3)c2c1
- IC50 [2]: > 1000 nM
- IC50 [3]: > 5000 nM
